Assay type in all cases: cell-based
Data set [1] relates to Mutu III, an apoptosis resistant (group III) BL cell line. The data set can be described thus: DNA synthesis by [3H]-thymidine incorporation in Mutu III. The note with it: 125 μM 5-HT, 24 hr. The method, then: (§1) DNA synthesis was determined by measuring ^3H-thymidine ([^3H]Tdr; Amersham, UK) incorporation into cellular DNA. Cells were cultured in 200 μL of supplemented medium at densities and for times indicated below in flat-bottomed, 96-well tissue culture plates (Becton Dickinson, Oxford, U K) then pulsed for the final 4 h with 50 μl of 10 μCi/ml [^3H]Tdr before harvesting on a Skatron cell harvester (Helis Bio Ltd, Newmarket, UK).
(§2) Three other group I BL cell lines were also investigated, namely: Mutu I, Elijah, and BL2.
(In general: Uptake of a labelled nucleoside into DNA is a usual measure of proliferation.)

In data set [2] the test system is L3055 cells. The data set can be described thus: OxyDNA assay of oxidative damage to DNA. The note with it: 6 hr; 150 μM 5-HT or 30 μM H2O2. The method, then:
Oxidative damage to DNA was quantified using the OxyDNA assay (Biotrin, Dublin, Ireland). Following culture of cells under conditions indicated below, they were washed first in 1×PBS then in wash solution followed by addition of 100 μl of blocking solution with a 1 hr incubation at 37° C. On washing twice in working solution, cells were then incubated with 100 μl FITC-conjugate for 1 hr in the dark at RT before being washed twice in washing solution and once in PBS. Finally, cells were resuspended in FACS buffer and analysed on an EPICS XL-MCL flow cytometer.
While the above experiments offer evidence that oxidative stress was not the cause of 5-HT-induced apoptosis in BL cells, further more direct examination of the generation of potential reactive oxygen species (ROS) as a consequence of 5-HT uptake was undertaken. For this the OxyuDNA assay was used, which quantifies 8-oxo-7,8-dihydro-2′-deoxyguanosine (8-oxodGuo) residues that are generated as a result of oxidative damage to DNA (see methods section 1.1.8 above).

Data set [3] has as its system L3055 cells. The experiment in a line: Cell cycle analysis (propidium iodide, flow cytometry). The conditions noted are these: 24 hr; each at its maximal concentration (5-HT 150 μM, fluoxetine 10 μM, anti-μ chain antibody 10 μg/ml). The method, then:
Cells cultured under conditions indicated below were harvested into 100 μl of 1×PBS followed by 400 μl cell cycle buffer containing Triton X-100 and propidium iodide and left to incubate at 4° C. for 1 hr to allow staining of DNA. The degree of fluorescence emitted by bound PI is directly proportional to the amount of DNA in each cell and was measured by flow cytometry as previously described (MacDonald I, et al. Blood (1996); 87:1147-1154). Results are expressed as percentage of viable cells residing in each phase of the cycle.
A general note: Flow cytometry measures light scatter and fluorescence of single cells or particles in a stream.

The next data set relates to L3055 BL cells. The experiment in a line: DNA synthesis by [3H]-thymidine incorporation in L3055 cells. The note with it: for inhibition at 50 µM: L3055, 5-HT 50 μM; for effect on DNA synthesis (in words): single dose, range of concentrations, [3H]-thymidine incorporation at 24 hr; for influence of pre-treatment on 5-HT-dependent inhibition of DNA synthesis (in words): cells pre-treated with agent before 5-HT. Here is the method:
as §1

In data set [4] the test system is L3055 cells. The data set can be described thus: Mitochondrial depolarisation with JC-1 dye. The conditions noted are these: following exposure to 5-HT; not shown. Here is the method:
Apoptosis was assessed by staining cells with acridine orange and visualising nuclear morphology exactly as described previously (Gordon J, et al. Cell Death. Diff. (2000); 7:785-794). Viable cells display a homogeneous chromatin-staining pattern, whereas apoptotic cells characteristically show condensed and fragmented chromatin. Mitochondrial depolarisation was assessed using the JC-1 cationic dye. Cells were incubated with 10 μM of JC-1 for 30 min before being visualised on a LSM 510 confocal microscope (Zeiss, Germany). […] Mitochondrial depolarisation is indicated by a decrease in the red/green fluorescence ratio.

Data set [5] concerns L3055 cells. The data set can be described thus: Caspase activity (FAM-VAD-FMK, FACS). The note with it: for effect on number of cells showing caspase activity (in words): single dose for 24 hours, fluoxetine 10 μM, paroxetine 10 μM, citalopram 100 μM. The method, then:
Caspase activity was detected using the CaspaTag Caspase Activity Kit (Intergen, Oxford, UK). Cells cultured under the conditions indicated below were harvested into 300 μl of culture medium at a cell density of 10^6cells/ml, followed by the addition of […] of a 30×working solution of FAM-VAD-FMK (a carboxy fluorescent tagged caspase inhibitor) (Intergen Co., USA). Cells were then incubated for 1 hr at 37° C. under 5% CO2 while protecting the tubes from light. At the end of the incubation, they were washed twice in 2 ml of 1×washing buffer, followed by addition of 2 μl of PI to distinguish dead cells from live cells, then analysed on an EPICS XL-MCL flow cytometer or by confocal microscopy. For the latter, treated cells were harvested into 300 μl of culture medium containing 10 μl of FAM-VAD-FMK before incubating for 1 hr under the conditions described above. Next, 1.5 μl of Hoechst 33342 stain was added for 5 min, and cells were washed twice in 2 ml of 1×washing buffer following the addition of 1 μl of PI.

Data set [6] deals with L3055 cells. The data set can be described thus: Syto 16 / propidium iodide staining (viable, apoptotic, necrotic). The note with it: increasing concentrations, 24 hr. The method, then:
(§3) Changes in the viability of cells cultured under conditions indicated below were quantified by assessment of forward and 90° (side) light scatter of cells as previously described (Dive C, et al. Biochimica Biophysica Acta (1992); 1133:275-285) using an EPICS XL-MCL flow cytometer (Beckman Coulter, Miami, Fla., USA). Prior to analysis, cells were harvested into polythene FACS tubes, and fixed at 4° C. in 400 μl of FACS buffer [PBS with 5% NGS and 2% Formaldehyde] (BDH/MERCK). Cells were gated in two populations (viable and dead) according to their forward and side light scatter. Viability was expressed as a percentage of the total number of cells residing in the viable and non-viable gates. Cells were also analysed according to Schuurhuis et al (Schuurhuis G J, et al. Exp. Haematol. (1997); 25:754-759) in order to assess the percentages within treated populations of those that were viable, apoptotic, or necrotic. Syto 16 was added at a concentration of 250 nM in PBS to 500,000 cells and incubated at RT for 30 min, at which time 5 μg/ml propidium iodide (PI) was added. Samples were then analysed immediately by FACS and a 2D plot generated of syto 16 fluorescence versus PI fluorescence: syto 16 is taken up only by viable cells whereas Pi exclusively enters necrotic cells—syto 16^−ve/PI^−ve cells are deemed apoptotic.

Data set [7] deals with L3055 cells. The experiment in a line: Viability by FACS forward versus side light scatter. The method, then:
as §3

For data set [8], the system named is T-cell leukaemia line, Jurkat. The experiment in a line: 5-HT sensitivity of Jurkat line. The conditions noted are these: not shown.
The subject of data set [9] is group I BL cell lines Mutu I, Elijah, and BL2. The data set can be described thus: DNA synthesis by [3H]-thymidine incorporation in other group I BL cell lines. The conditions noted are these: 125 μM 5-HT, 24 hr. The method, then:
as §1, §2

For data set [10], the system named is L3055 cells. The data set can be described thus: Intracellular free Ca2+. The note with it: data not shown. The source says: The increase in intracellular free Ca^2+ is known to be an important step in the induction of apoptosis.
In data set [11] the test system is Bcl-2 transfected BL cell line. The data set can be described thus: Viability (FACS light scatter) of Bcl-2 transfected BL cell line. The method, then: Group I Burkitt's lymphoma cell lines L3055 (EBV^neg), BL2 (EBV^neg), Elijah (EBV^pos), and MUTU I (EBV^pos) were maintained in early passage as described previously (Baker M P, Eliopoulos E, Young L S, Armitage R J, Gregory C D, Gordon J. Blood (1998); 92:2830-2843). The late passage group III BL line MUTU III (EBV^pos) was also used with all cells cultured in RPMI 1640 medium supplemented with 10% Serum Supreme (BioWhittaker, Wokingham, UK), 2 mM glutamine, 100 IU/ml penicillin and 100 μg/ml streptomycin. […]
Changes in the viability of cells cultured under conditions indicated below were quantified by assessment of forward and 90° (side) light scatter of cells as previously described (Dive C, et al. Biochimica Biophysica Acta (1992); 1133:275-285) using an EPICS XL-MCL flow cytometer (Beckman Coulter, Miami, Fla., USA). […] Viability was expressed as a percentage of the total number of cells residing in the viable and non-viable gates. Cells were also analysed according to Schuurhuis et al (Schuurhuis G J, et al. Exp. Haematol. (1997); 25:754-759) in order to assess the percentages within treated populations of those that were viable, apoptotic, or necrotic. […]

Where two headings read alike, the source gives them in different places. Where only a bound is given, the exact number is not on record here.

As usually defined, the inhibition is how much of the control response was suppressed. As to `NCCc1c[nH]c2ccc(O)cc12` [Example 5-HT, Serotonin], the “effect on DNA synthesis (in words)” value in [1] is reported as “only marginally decreased DNA synthesis”; with L3055 BL cells it was “caused a reduction in DNA synthesis in a concentration-dependent manner”; in data set [9], “substantial decrease in DNA synthesis”. For the same compound, the “level of oxidatively damaged DNA (8-oxoguanosine residues) (in words)” value with L3055 cells [2] is on record as “no increase in the level of oxidatively damaged DNA”. Besides, the “cell cycle status (in words)” value in the data set on L3055 cells [3] is reported as “accumulation of arresting cells in the G0/G1 compartment”. The “effect on level of DNA synthesis (in words)” value in the data set on L3055 BL cells (1 μM 5-HT, very early passage, lower cell numbers, data not shown) is listed as “significant reduction”. The inhibition at 50 µM with L3055 BL cells (cells plated at 2×10^4 per well) is ~35%; in the data set on L3055 BL cells (cells plated at 5×10^3 per well), > 90%; in the data set on L3055 BL cells (cells plated at 10^4 per well), ~70%. For the same compound, the IC50 in the data set with L3055 BL cells (L3055, read-out: 5-HT required to achieve 50% inhibition of DNA synthesis, plated at 2.5×10^4 per ml (5×10^3 per well)) is ~5 µM; in the data set on L3055 BL cells (L3055, read-out: 5-HT required to achieve 50% inhibition of DNA synthesis, plating density 10^5 per ml (2×10^4/well)), > 50 µM. In the data set on L3055 cells [4], the “mitochondrial membrane potential (in words)” value is reported as “loss of mitochondrial membrane potential”. Also, the “% caspase activation (6 h)” value with L3055 cells [5] (5-HT 150 μM, fluoxetine 5 μM, paroxetine 2 μM, citalopram 10 μM, means ± S.E.M. of 3, control 27.3 ± 1.20) was 58.3 ± 2.03%. Further, the “percentage of cells showing caspase activity” value in the data set on L3055 cells [5] (6 hr 5-HT treatment, background level 29%) was determined as 59%. Also, the “number of viable cells (syto 16+ve/PI−ve) (in words)” value in the data set on L3055 cells [6] was “decreased in a concentration-dependent manner”. Besides, the “cells with light scatter characteristics of dead cells (in words)” value with L3055 cells [7] (1 to 150 μM, 24 hr) is reported as “dramatic concentration-dependent increase in the number of L3055 cells acquiring light scatter characteristics of dead cells”. Moreover, the viability at 150 µM in the data set with L3055 cells [7] (L3055, 24 h, read-out: % viable cells (24 h)) is 21.3 ± 8.65%. For the same compound, the “sensitivity to 5-HT actions (in words)” value in data set [8] is “insensitive”.
For `CCN(CC)CCOC(=O)c1cc(Cl)c(N)cc1OC` [SDZ205-557], the “influence of pre-treatment on 5-HT-dependent inhibition of DNA synthesis (in words)” value with L3055 BL cells is “failed to influence the ability of 5-HT to inhibit DNA synthesis”.
Turning to `OO` [Example H2O2, H2O2], in the data set with L3055 cells [2], the “level of oxidatively damaged DNA (8-oxoguanosine residues) (in words)” value is “large increase in the level of 8-oxoguanosine residues generated”.
For `C#CCN(C)CCCOc1ccc(Cl)cc1Cl` [clorgyline], the “influence of pre-treatment on 5-HT-dependent inhibition of DNA synthesis (in words)” value in the data set with L3055 BL cells is “the same outcome was observed”.
Take `C#CCN(C)Cc1ccccc1` [pargyline]: the “effect of agent by itself on DNA synthesis (in words)” value in the data set on L3055 BL cells (100 μM pargyline, no 5-HT) is recorded as “no deleterious effect by itself”. The “influence of pre-treatment on 5-HT-dependent inhibition of DNA synthesis (in words)” value with L3055 BL cells is recorded as “failed to influence 5-HT-induced cessation of DNA synthesis”.
As for `C#CCN(C)[C@H](C)Cc1ccccc1` [deprenyl], the “influence of pre-treatment on 5-HT-dependent inhibition of DNA synthesis (in words)” value in the data set with L3055 BL cells was “the same outcome was observed”.
For the compound `Fc1ccc([C@@H]2CCNC[C@H]2COc2ccc3c(c2)OCO3)cc1` [paroxetine], the “basal Ca2+ (in words)” value with L3055 cells [10] is “increase in basal Ca^2+”. Also, in the data set on L3055 BL cells, the “influence of pre-treatment on 5-HT-dependent inhibition of DNA synthesis (in words)” value is given as “substantially reversed” and the “effect on DNA synthesis (in words)” value is given as “dose dependent inhibitory effect”. In the data set with L3055 cells [5], the “effect on number of cells showing caspase activity (in words)” value is reported as “significant effect on the numbers of cells showing caspase activity”.
For the compound `CN(C)CCCN1c2ccccc2CCc2ccccc21` [imipramine], the “cell killing in Bcl-2 transfected versus native BL cell line (in words)” value in [11] (24 hrs) was “greatly reduced”. The “survival (live cells)” value is reported as 91% in data set [11] (Bcl-2 transfected BL cell line (panel II, FIG. 26)) and 30% in the data set on L3055 cells [7] (native cell line (panel I, FIG. 26)). Further, the “effect on DNA synthesis (in words)” value with L3055 BL cells was “dose dependant effect”. The “effect on number of cells showing caspase activity (in words)” value in the data set on L3055 cells [5] was “significant effect on the number of cells exhibiting caspase activity”.

These data come from patent US20050182002A1, “Agents which interact with a serotonin transporter for the treatment of cancer” (priority 2002, published 2005).
